According to paper PMC7156458, “Synthetic biology based construction of biological activity-related library of fungal decalin-containing diterpenoid pyrones” (Nature Communications, 2020):
“And” between values parts separate entries of the source, which are not always exact repeats. Identical values can stand only once.

Experiments:
[1] = test system: MCF-7 cells; assay: cell cytotoxic effects against MCF-7 cells (72 h), A490; type: cell-based, human; settings: for viability at 0.1 µM / viability at 1 µM / viability at 10 µM: Homo sapiens, MCF7, 72 h, read-out: A490 (control =1) ave; for viability at 0.1 µM / viability at 1 µM / viability at 10 µM / A490 ave: MCF-7, 72 h
Description: !" ' ' '! !" ' ' '! !" ' ' '!!" ' ' '!!" ' ' '!!" ' ' '!!" ' ' '!!" ' ' '! !" ' ' '! !" ' ' '! !" ' ' '! !"#$
( % ) * '! '' '# '+ '$ '( '%
! " # $ %& %% %' %( %) %! %"
!" ' ' '! !" ' ' '!!" ' ' '!!" ' ' '!!" ' ' '!!" ' ' '!!" ' ' '! !" ' ' '! !" ' ' '! !" ' ' '! !" ' ' '! […]
Supplementary Fig. 46. a, Cell cytotoxic effects of DDPs against MCF-7 cells (72 h).
dose dependent cytotoxic effects against MCF-7 cells were tested their inhibitory activity against mammosphere
formation. Compound in blue (16) was also performed mammosphere assay as negative control. Data represent
mean±s.d. from three independent replicate experiments. […]
Source data underlying Supplementary Figure 46a are provided in a Source Data file. […]

[2] = test system: MAGI cells; assay: cytotoxicity in the anti-HIV assay (CC50); type: cell-based; settings: for Cytotoxicity: single determinations; for Cytotoxicity Avg.: average of numeric determinations
Text: We examined the inhibitory activities of DDPs against various species of bacteria (both gram-negative and gram-positive bacteria), fungi and viruses. […] In contrast, preliminary screening of the DDPs for anti-viral agents with hepatitis B virus (HBV), measles virus (MV), Epstein-Barr virus (EBV), herpes simplex virus (HSV) and human immunodeficiency virus-1 (HIV-1) indicated their selective inhibition of HIV.
Policy information about cell lines […]
HeLa-CD4-LTR/ !-galactosidase (MAGI) cells provided by Dr. J. Overbaugh through the NIH AIDS Research and Reference […]
MAGI cells were authenticated by the NIH.
Mycoplasma contamination All the cell lines tested negative for mycoplasma contamination.
Commonly misidentified lines No commonly mis-identified cell lines. […]

[3] = 0.1 µM (DMSO 0.002%), control 1.064
[4] = 1 µM (DMSO 0.02%), control 1.104
[5] = 10 µM (DMSO 0.2%), control 1.049

SMILES: C=C1CC[C@H]2[C@]3(C)C[C@@H](C=C(C)C)O[C@H]3CC[C@]2(C)[C@@H]1Cc1c(OC)oc(CO)c(C)c1=O [Compound 17]
- cytotoxicity against the bulk of MCF-7 cells [1]: dose-dependent cytotoxicity
- viability at 0.1 µM ([1]; 0.1 µM (DMSO 0.002%)): 84.7%
- viability at 1 µM ([1]; 1 µM (DMSO 0.02%)): 48.1%
- viability at 10 µM ([1]; 10 µM (DMSO 0.2%)): 29.4%
- A490 ave [1, 3]: 0.901
- A490 ave [1, 4]: 0.531
- A490 ave [1, 5]: 0.309
- Cytotoxicity [2]: >10 µM

SMILES: C=C1CCC2C(C)(CCC=C(C)C)C(=O)CCC2(C)C1Cc1c(O)c(C)c(C)oc1=O (stereo not shown) [Compound 8]
- Cytotoxicity Avg. [2]: 8.816 µM
- Cytotoxicity [2]: 9.604 µM and 7.239 µM

SMILES: C=C1CCC2C(C)(CCC=C(C)C)C(O)CCC2(C)C1Cc1c(OC)oc(CO)c(C)c1=O (stereo not shown) [Compound 16]
- cytotoxicity against the bulk of MCF-7 cells [1]: Low-toxicity
- A490 ave [1, 3]: 0.808
- A490 ave [1, 4]: 1.178
- A490 ave [1, 5]: 0.730
- Cytotoxicity Avg. [2]: 6.65 µM

SMILES: C=C1CC[C@H]2[C@]3(C)C[C@H](C=C(C)C)O[C@H]3CC[C@]2(C)[C@@H]1Cc1c(OC)oc(CO)c(C)c1=O [Compound 18]
- cytotoxicity against the bulk of MCF-7 cells [1]: dose-dependent cytotoxicity
- viability at 0.1 µM ([1]; 0.1 µM (DMSO 0.002%)): 65.7%
- viability at 1 µM ([1]; 1 µM (DMSO 0.02%)): 26.3%
- viability at 10 µM ([1]; 10 µM (DMSO 0.2%)): 15%
- A490 ave [1, 3]: 0.699
- A490 ave [1, 4]: 0.290
- A490 ave [1, 5]: 0.158
- Cytotoxicity [2]: >10 µM

SMILES: C=C1CCC2C(C)(CCC=C(C)C)C(O)CCC2(C)C1Cc1c(OC)oc(C)c(C(=O)OC)c1=O (stereo not shown) [Compound 14]
- viability at 0.1 µM ([1]; 0.1 µM (DMSO 0.002%)): 74.8%
- viability at 1 µM ([1]; 1 µM (DMSO 0.02%)): 75.6%
- viability at 10 µM ([1]; 10 µM (DMSO 0.2%)): 19.7%
- A490 ave [1, 3]: 0.796
- A490 ave [1, 4]: 0.834
- A490 ave [1, 5]: 0.207
- Cytotoxicity [2]: >10 µM

SMILES: C=C1CCC2C3(C)CC(C=C(C)C)OC3CCC2(C)C1Cc1c(OC)oc(C)c(C)c1=O (stereo not shown) [Compound 23]
- cytotoxicity against the bulk of MCF-7 cells [1]: dose-dependent cytotoxicity
- viability at 0.1 µM ([1]; 0.1 µM (DMSO 0.002%)): 62.5%
- viability at 1 µM ([1]; 1 µM (DMSO 0.02%)): 21.6%
- viability at 10 µM ([1]; 10 µM (DMSO 0.2%)): 14.8%
- A490 ave [1, 3]: 0.664
- A490 ave [1, 4]: 0.239
- A490 ave [1, 5]: 0.155
- Cytotoxicity Avg. [2]: 5.617 µM
- Cytotoxicity [2]: 5.032 µM and 7.537 µM and 4.281 µM

SMILES: C=C1CCC2C(C)(CC(=O)C=C(C)C)C(O)CCC2(C)C1Cc1c(O)c(C)c(C)oc1=O (stereo not shown) [Compound 7]
- viability at 0.1 µM ([1]; 0.1 µM (DMSO 0.002%)): 81%
- viability at 1 µM ([1]; 1 µM (DMSO 0.02%)): 92.4%
- viability at 10 µM ([1]; 10 µM (DMSO 0.2%)): 104%
- A490 ave [1, 3]: 0.862
- A490 ave [1, 4]: 1.021
- A490 ave [1, 5]: 1.095
- Cytotoxicity [2]: >10 µM

SMILES: C=C1CC[C@@H]2[C@](C)(CC[C@H]3O[C@H](C=C(C)C)C[C@@]23C)[C@@H]1Cc1c(OC)oc(CO)c(C)c1=O [Compound 20]
- cytotoxicity against the bulk of MCF-7 cells [1]: dose-dependent cytotoxicity
- viability at 0.1 µM ([1]; 0.1 µM (DMSO 0.002%)): 90%
- viability at 1 µM ([1]; 1 µM (DMSO 0.02%)): 45.3%
- viability at 10 µM ([1]; 10 µM (DMSO 0.2%)): 29.4%
- A490 ave [1, 3]: 0.958
- A490 ave [1, 4]: 0.500
- A490 ave [1, 5]: 0.308
- Cytotoxicity [2]: >10 µM

SMILES: C=C1CC[C@H]2[C@]3(C)C[C@H](C=C(C)C)O[C@H]3CC[C@]2(C)[C@@H]1Cc1c(OC)oc(C)c(C)c1=O [Compound 24]
- viability at 0.1 µM ([1]; 0.1 µM (DMSO 0.002%)): 64%
- viability at 1 µM ([1]; 1 µM (DMSO 0.02%)): 76.3%
- viability at 10 µM ([1]; 10 µM (DMSO 0.2%)): 12.6%
- A490 ave [1, 3]: 0.680
- A490 ave [1, 4]: 0.843
- A490 ave [1, 5]: 0.132

SMILES: C=C1CCC2C(C)(CC(=O)C=C(C)C)C(O)CCC2(C)C1Cc1c(OC)oc(C)c(C)c1=O (stereo not shown) [Compound 25]
- viability at 0.1 µM ([1]; 0.1 µM (DMSO 0.002%)): 78.9%
- viability at 1 µM ([1]; 1 µM (DMSO 0.02%)): 103%
- viability at 10 µM ([1]; 10 µM (DMSO 0.2%)): 112%
- A490 ave [1, 3]: 0.839
- A490 ave [1, 4]: 1.141
- A490 ave [1, 5]: 1.171

SMILES: C=C1CC[C@H]2[C@]3(C)C[C@H](C=C(C)C)O[C@H]3CC[C@]2(C)[C@@H]1Cc1c(O)c(C)c(C)oc1=O [Compound 6, subglutinol B]
- viability at 0.1 µM ([1]; 0.1 µM (DMSO 0.002%)): 55.9%
- viability at 1 µM ([1]; 1 µM (DMSO 0.02%)): 109%
- viability at 10 µM ([1]; 10 µM (DMSO 0.2%)): 22.4%
- A490 ave [1, 3]: 0.595
- A490 ave [1, 4]: 1.207
- A490 ave [1, 5]: 0.235
- Cytotoxicity [2]: >10 µM
